Measurements reported in US8680282B2, “Cyclic inhibitors of carnitine palmitoyltransferase and treating cancer” (University Health Network, priority 2007, dated 2014).

Tests used:
Assay in all cases: Cancer cell growth inhibition, SRB assay
Hs578T = format: cell-based; details: Homo sapiens, Hs-578T, 144 h; Hs578T (Breast); SRB at Day 6; triplicate
H358 = format: cell-based, human; parameters: Percentage of Growth Inhibition: unit not given here; details: SRB at Day 6; for GI50: Homo sapiens, NCI-H358, 144 h, H358 (Lung), triplicate; for Percentage of Growth Inhibition: H358, at 10 μM, NE = no activity at 10 micromolar
Experimental: (§1) Human cancer cells (MCF-7, H358, H460, HCT116 p53^+/+, HCT116 p53^−/−, A172, PC-3, DU-145 and SW626) were maintained in DMEM medium containing 10% Fetal Bovine Serum (FBS) (Invitrogen, Burlington, ON, Canada) and normal cells HMEC, 184A1, NHBE and PrEC were cultured in MEGM, MEGM plus transferring and cholera toxin, BEGM and PrEGM supplemented with various growth factors (Cambrex, Charles city, Iowa, USA), respectively.
(§2) Compounds of Examples S1 to S30, and 4-(carboxymethyl)-4-(6-(3-hexyloxy)phenoxy)hexanoamido)-1,1-dimethylpiperidinium 2,2,2-trifluoroactate (“Compound A”) were tested in this example. Each of the tested compounds was dissolved in DMSO and further diluted in cell culture medium for the experiments performed. Cells were seeded into 96-well plates with 1,500-5,000 cells/well according to cell growth rate. After 24 h, DMEM medium containing 10% FBS were changed to DMEM containing 3% FBS for cancer cells. The compound was added into the cell culture at the indicated concentrations, and the final concentration of DMSO was adjusted to a final concentration of 0.1%. Cell viability was assessed by Sulforhodamine B (SRB) assay at Day 6.
(§3) Sulforhodamine B (SRB) (Sigma, Oakville, ON, Canada) is a water-soluble dye that binds to the basic amino acids of the cellular proteins. Thus, colorimetric measurement of the bound dye provides an estimate of the total protein mass that is related to the cell number. The cells were fixed in situ by gently aspirating off the culture media and adding 50 ul of cold 10% Tri-chloroacetic Acid (TCA) per well and incubated at 4° C. for 30-60 min. The plates were washed five times with water and allowed to air dry for 5 min. 50 ul of 0.4% (w/v) SRB dissolved in 1% (v/v) acetic acid were added into each well, plates were then incubated at RT for 30 min for staining, washed four times with 1% acetic acid to remove any unbound dye and then allowed to air dry for 5 min. Stain was solubilized with 100 ul of 10 mM Tris pH 10.5 per well. Absorbance was read at 570 nm on a spectrophotometer. GI50 (compound concentration required for 50% of growth inhibition) was calculated using GraphPad Prism 4.0 software (GraphPad Software, Inc., San Diego, Calif., USA). Growth inhibition (%) was determined as percentage of cells remaining compared to the DMSO-treated cells as control.

A549 = format: cell-based, human; parameters: Percentage of Growth Inhibition: scale not given here; details: SRB at Day 6; for GI50: Homo sapiens, 144 h, A549 (Lung), triplicate
A172 = format: cell-based, human; details: SRB at Day 6; for GI50: Homo sapiens, A 172, 144 h, A172 (Brain), triplicate; for Percentage of Growth Inhibition: A172, at 10 μM, NE = no activity at 10 micromolar
Experimental: as §1, §2, §3

PC-3 = format: cell-based, human; details: SRB at Day 6; for GI50: Homo sapiens, 144 h, PC-3 (Prostate), triplicate; for Percentage of Growth Inhibition: PC-3, at 10 μM, NE = no activity at 10 micromolar
Experimental: as §1, §2, §3

COLO-205 = format: cell-based, human; details: SRB at Day 6; for GI50: Homo sapiens, 144 h, COLO-205 (Colon), triplicate; for Percentage of Growth Inhibition: COLO-205, at 10 μM, NE = no activity at 10 micromolar
HCT-15 = format: cell-based, human; parameters: Percentage of Growth Inhibition: scale not given here; details: SRB at Day 6; for GI50: Homo sapiens, 144 h, HCT-15 (Colon), triplicate; for Percentage of Growth Inhibition: HCT-15, at 10 μM, NE = no activity at 10 micromolar
SW480 = format: cell-based, human; details: SRB at Day 6; for GI50: Homo sapiens, 144 h, SW480 (Colon), triplicate; for Percentage of Growth Inhibition: SW480, at 10 μM, NE = no activity at 10 micromolar
SW620 = format: cell-based, human; parameters: Percentage of Growth Inhibition: scale not given here; details: SRB at Day 6; for GI50: Homo sapiens, SW-620, 144 h, SW620 (Colon), triplicate; for Percentage of Growth Inhibition: SW620, at 10 μM, NE = no activity at 10 micromolar
MCF-7 = format: cell-based, human; parameters: Percentage of Growth Inhibition: scale not given here; details: SRB at Day 6; for GI50: Homo sapiens, MCF7, 144 h, MCF-7 (Breast), triplicate; for Percentage of Growth Inhibition: MCF-7, at 10 μM, NE = no activity at 10 micromolar
Experimental: as §1, §2, §3

SW626 = format: cell-based, human; parameters: Percentage of Growth Inhibition: scale not given here; details: SRB at Day 6; for GI50: Homo sapiens, 144 h, SW626 (Ovarian), triplicate; for Percentage of Growth Inhibition: SW626, at 10 μM, NE = no activity at 10 micromolar
Experimental: as §1, §2, §3

Caov-3 = format: cell-based; details: Homo sapiens, 144 h; Caov-3 (Ovarian); SRB at Day 6; triplicate

| Compound | Percentage of Growth Inhibition (H358) | Percentage of Growth Inhibition (A172) | Percentage of Growth Inhibition (COLO-205) | Percentage of Growth Inhibition (SW620) | Percentage of Growth Inhibition (MCF-7) | Percentage of Growth Inhibition (SW626) | Percentage of Growth Inhibition (PC-3) | Percentage of Growth Inhibition (SW480) | further results |
| --- | --- | --- | --- | --- | --- | --- | --- | --- | --- |
| CCCCCCCCc1ccc(NS(=O)(=O)NC2(CC(=O)O)CC[N+](C)(C)CC2)cc1 [Example S8, 4-(carboxymethyl)-1,1-dimethyl-4-(N-(4-octylphenyl)sulfamoylamino)piperidinium 2,2,2-trifluoroacetate] | – | – | – | – | – | – | – | – | GI50 (Hs578T): 26 µM; GI50 (H358): 0.9 µM; GI50 (A549): 10 µM; GI50 (A172): 2.2 µM; GI50 (PC-3): 1.7 µM; GI50 (COLO-205): 5.3 µM; GI50 (HCT-15): 9 µM; GI50 (SW480): 2.8 µM; GI50 (SW620): 8.4 µM; GI50 (MCF-7): 2 µM; GI50 (SW626): 15 µM; GI50 (Caov-3): 2 µM |
| C[N+]1(C)CCC(CC(=O)O)(NC(=O)c2ccc(CCc3ccccc3)o2)CC1 [Example S5, 4-(Carboxymethyl)-1,1-dimethyl-4-(5-phenethylfuran-2-carboxamido)-piperidinium 2,2,2-trifluoroacetate] | 0.08927 | 0.01342% | 0.1219% | 0.05572% | 0.02312% | 0.03032% | – | – | – |
| CCCCCCCCCCc1ccc(C(=O)NC2(CC(=O)O)CCN(C)C2)cc1 (centres unmarked) [Example S21, 3-(carboxymethyl)-3-(4-decylbenzamido)-1-methylpyrrolidinium 2,2,2-trifluoroacetate] | 0.6802 | 0.1417% | 0.02151% | 0.07327% | 0.01838% | 0.154% | 0.1562% | 0.09568% | Percentage of Growth Inhibition (HCT-15): 0.04235% |
| CCCCCCCCc1ccc(NC(=O)NC2(CC(=O)O)CCC[N+](C)(C)C2)cc1 (centres unmarked) [Example S10, 3-(carboxymethyl)-1,1-dimethyl-3-(3-(4-octylphenyl)ureido)-piperidinium 2,2,2-trifluoroacetate] | – | – | – | – | – | – | – | – | GI50 (Hs578T): 39 µM; GI50 (H358): 1 µM; GI50 (A549): 73 µM; GI50 (A172): 4.6 µM; GI50 (PC-3): 0.9 µM; GI50 (COLO-205): 1 µM; GI50 (HCT-15): 16 µM; GI50 (SW480): 0.7 µM; GI50 (SW620): 2.5 µM; GI50 (MCF-7): 5.1 µM; GI50 (SW626): 2.7 µM |
| CCCCCc1ccc(S(=O)(=O)NC2(CC(=O)O)CC[N+](C)(C)C2)cc1 (centres unmarked) [Example S20, 3-(carboxymethyl)-1,1-dimethyl-3-(4-pentylphenylsulfonamido)-pyrrolidinium 2,2,2-trifluoroacetate] | 0.2773 | 0.1176% | 0.3647% | 0.01263% | 0.2269% | 0.07399% | – | 0.02596% | – |
| O=C(O)CC1(NC(=O)c2ccc(C#Cc3ccccc3)o2)CNC1 [Example S26, 3-(carboxymethyl)-3-(5-(phenylethynyl)furan-2-carboxamido)-azetidinium 2,2,2-trifluoroacetate] | 0.1437 | – | 0.1892% | 0.0551% | 0.1403% | 0.07378% | – | 0.04449% | – |
| CCCCCCCCc1ccc(NC(=O)NC2(CC(=O)O)CCC[NH+](C)C2)cc1 (centres unmarked) [Example S9, 3-(Carboxymethyl)-1-methyl-3-(3-(4-octylphenyl)ureido)piperidinium 2,2,2-trifluoroacetate] | – | – | 0.2852% | 0.04904% | 0.02731% | 0.02424% | 0.2585% | 0.00756% | Percentage of Growth Inhibition (A549; A549, at 10 μM, NE = no activity at 10 micromolar): 0.451% |
| CCCCCCCCc1ccc(N(C)S(=O)(=O)NC2(CC(=O)O)CCC[N+](C)(C)C2)cc1 (centres unmarked) [Example S30, 3-(carboxymethyl)-1,1-dimethyl-3-(N-methyl-N-(4-octylphenyl)-sulfamoylamino)piperidinium 2,2,2-trifluoroacetate] | – | – | – | – | – | – | – | – | GI50 (Hs578T): 3 µM; GI50 (H358): 2.9 µM; GI50 (A549): 1 µM; GI50 (A172): 0.6 µM; GI50 (PC-3): 0.7 µM; GI50 (COLO-205): 1.6 µM; GI50 (HCT-15): 14 µM; GI50 (SW480): 3.5 µM; GI50 (SW620): 3.5 µM; GI50 (MCF-7): 3.1 µM; GI50 (SW626): 21 µM |
| CCCCCc1ccc(S(=O)(=O)NC2(CC(=O)O)CCN(C)CC2)cc1 [Example S3, 4-(carboxymethyl)-1-methyl-4-(4-pentylphenylsulfonamido)piperidinium 2,2,2-trifluoroacetate] | 0.4638 | – | 0.03424% | 0.03948% | 0.007318% | – | – | 0.0383% | Percentage of Growth Inhibition (HCT-15): 0.06515% |
| C[N+]1(C)CCC(CC(=O)O)(NC(=O)c2ccc(C#Cc3ccccc3)o2)CC1 [Example S6, 4-(Carboxymethyl)-1,1-dimethyl-4-(5-(phenylethynyl)furan-2-carboxamido)-piperidinium 2,2,2-trifluoroacetate] | 0.1074 | 0.05672% | 0.1543% | 0.05805% | 0.03714% | 0.2084% | 0.03591% | 0.03677% | – |
| CCCCCCCCCCc1ccc(C(=O)NC2(CC(=O)O)CC[N+](C)(C)C2)cc1 (centres unmarked) [Example S22, 3-(Carboxymethyl)-3-(4-decylbenzamido)-1,1-dimethylpyrrolidinium 2,2,2-trifluoroacetate] | 0.8129 | 0.1249% | 0.08112% | 0.2089% | 0.06486% | 0.2198% | 0.4436% | 0.6141% | Percentage of Growth Inhibition (HCT-15): 0.07473% |
